Laboratory results published in patent publication US9288991B2 (Rohm and Haas Company, priority 2012, dated 2016).

Legend:
[1] = tested on: Stichococcus bacillaris SAG 379-1a / CCAP 379/1a; assay: Algal efficacy testing of dry paint film (modified ASTM 5589), Stichococcus; format: cell-based
Description: (§1) These paints were then diluted with an antimicrobial free acrylic/silicone based paint and mixed to prepare targeted concentrations of antimicrobial compounds for the testing. The total biocides concentrations tested were 125, 250, 500, 1000, 2000 and 5000 ppm. After biocides addition or dilution, the paints were mixed 90 seconds with the horse power shaker (AXEL 75M3372/Agitateur SO-10MI) until uniformity was achieved. Paints containing different antimicrobial compounds at the same levels were mixed together in order to obtain the desired ratio of antimicrobial compounds. After one day, the paints were applied to Schleicher & Schuell filter paper at 280 μm wet film thickness and dried for 3 days at room temperature avoiding direct exposure to sunlight. Square discs (1.6 cm×1.6 cm) were cut out from each panel and were used as the substrate for algal efficacy tests. This sample size allowed for an agar border when the sample disc was placed into the well of the test plate.
(§2) Algal efficacy was tested according to modified ASTM 5589 which is a standard accelerated test method for determining resistance of various coatings (including paints) to algal defacement. To accommodate for high-throughput screening, this method was scaled down from petri dishes to 6-well plates. Bold Modified Basal Freshwater Nutrient Solution was used as growth medium. A single coated filter paper coupon was placed with a pair of sterile forceps at the center of the agar plug (on top) with the painted surface facing upwards. Algal inoculums were prepared by mixing equal concentrations (1×10^6 cfu/ml) and equal volumes of exponentially growing algae cultures.
(§3) Each well that contains a tested coupon was inoculated with 1750 μl of algal suspensions (1×10^6 cfu/ml) making sure that the whole surface (paint film as well as the agar surrounding it) was evenly covered. […]
(§4) At the end of the three week incubation period, the samples were scored for percent inhibition regarding visible algal growth compared to the blank sample (0% inhibition).
(§5) The SI is calculated based on F. C. […]

Chlorella sp. ATCC 7516 = assay: Algal efficacy testing of dry paint film (modified ASTM 5589), Chlorella; format: cell-based
Description: as §1, §2, §3, §4, §5

[2] = total active in paint, 3 weeks incubation, maximum tested conc given if pass not reached

Structure (SMILES)	inhibition at 5000 ppm ([1]; Stichococcus bacillaris, 504 h, total conc 5000 ppm, 3 weeks, visible algal growth vs blank)	inhibition at 5000 ppm (Chlorella sp. ATCC 7516; 504 h, total conc 5000 ppm, 3 weeks, visible algal growth vs blank)	Total conc (minimum inhibitory concentration chosen for SI; pass level ≧75% inhibition) [1, 2]	% inhibition ([1]; total conc 500 ppm, 3 weeks, visible algal growth vs blank)	Total conc (minimum inhibitory concentration chosen for SI; pass level ≧75% inhibition) (Chlorella sp. ATCC 7516; [2])	% inhibition (Chlorella sp. ATCC 7516; total conc 1000 ppm, 3 weeks, visible algal growth vs blank)
O=c1[nH]c2c(c(=O)n1C1CCCCC1)CCC2 [Lenacil, 3-cyclohexyl-1,5,6,7-tetrahydrocyclopentapyrimidine-2,4(3H)-dione]	70%	30%				
[O-][n+]1ccccc1[S][Zn][S]c1cccc[n+]1[O-] [ZnPT, bis(2-pyridylthio)zinc 1,1′-dioxide]			500 ppm	75%	1000 ppm	100%
